The results in this text go back to US11672795B2, “Compositions and methods for treating pulmonary vascular disease” (UNIVERSITY OF PITTSBURGH-OF THE COMMONWEALTH SYSTEM OF …, priority 2016, dated 2023).

The structures appear in SMILES notation.

One test has as its system Lox. Nature of the test: Lox activity in lungs of monocrotaline-exposed rats. The format is in vivo, rat. To be noted: daily BAPN or daily i.p. verteporfin 25 mg/kg, vs vehicle. The method, then:
Monocrotaline-treated rats: As we previously described (7, 8), male Sprague-Dawley rats (10-14 week old) were injected with 60 mg/kg monocrotaline at time 0; at 0-4 weeks post-exposure, right heart catheterization was performed followed by harvest of lung tissue for RNA extraction or paraffin embedding, as described below (section: Tissue harvest).
To establish definitively whether periarteriolar ECM remodeling and YAP/TAZ modulate vascular cell metabolism in vivo, it was determined whether alteration of YAP/TAZ-dependent mechanotransduction directly controls glutaminolysis and PH development in the monocrotaline rat model. First, using a known pharmacologic inhibitor (β-aminoproprionitrile, BAPN) of Lox, the enzyme responsible for collagen crosslinking and consequent matrix stiffening, it was determined whether inhibition of ECM stiffening could prevent the metabolic changes and downstream PH manifestations observed in monocrotaline-exposed rats (FIG. 4A). […] Such metabolic effects further decreased vascular endothelial and smooth muscle proliferation, as reflected by in situ arteriolar staining (FIG. 4G), and ameliorated hemodynamic and histologic manifestations of PH, as measured by vascular remodeling and muscularization (FIG. 4G), and right ventricular systolic pressure (RVSP) (FIG. 4H).

Test [1] relates to GLS1. Nature of the test: GLS1 expression by RT-qPCR in monocrotaline-exposed rats. The format is in vivo, rat. The following applies: for GLS expression: CD31+ cells of monocrotaline-exposed rats, daily BAPN or daily i.p. verteporfin 25 mg/kg; for GLS1 expression in lungs: monocrotaline-exposed rats, daily BAPN or daily i.p. verteporfin, vs vehicle, RT-qPCR. The method, then: Messenger RNAs were reverse transcribed using the Multiscript RT kit (Life Technologies) to generate cDNA. cDNA was amplified via fluorescently labeled Taqman primer sets using an Applied Biosystems 7900HT Fast Real Time PCR device. To specifically determine the relative expression of the two GLS1 isoforms KGA and GAC, TaqMan gene expression assays Hs01014019_m1 and Hs01022166_m1 were used respectively. Fold-change of RNA species was calculated using the formula (2^−ΔΔCt), normalized to RPLP0 expression.
As previously reported (8, 11), lobes of lung tissue from a rat were diced with scissors, to which 200 μL of collagenase D solution (Sigma) was added for a final concentration of 2 mg/ml collagenase D in 4.8 mL HEPES buffer (pH=7.4). After incubation for 30 min at 37° C. with automated rotation, 20 μL of DNase I (Sigma, final concentration of 80 U/mL DNase I) was added and incubated on ice for 30 min. The solution was filtered twice by a 70 μm cell strainer (BD Biosciences) to yield a single cell suspension. After two rounds of PBS wash, cell pelleting, and resuspension, the ACK lysing buffer (Gibco) was used to remove erythrocytes. Remained cells were incubated 30 min at 4° C. with a mouse anti-rat-CD31 antibody (BD Pharmigen 555025). Cells were PBS washed twice and incubated 15 min with anti-mouse IgG1 MicroBeads (Miltenyi Biotec) according to the manufacturer protocol. Single CD31-positive cells were then collected using an autoMACS Pro Separator, per the manufacturer's instructions (Miltenyi Biotec). The purity (>95%) of CD31 positive cells was confirmed by flow cytometric analysis by a FACScan flow cytometer (BD Biosciences) after cells labeling with the FITC-conjugated anti-CD31 (ab33858, Abcam).

For test [2], the system named is GLS1. Nature of the test: Targeted LC-MS/MS of intracellular metabolites in PAECs on soft or stiff matrix with GLS inhibitors. Type of test: cell-based, human. To be noted: stiff matrix, BPTES 10 μM, DON 5 μM, C968 10 μM. The method, then:
HEK293T cells (American Type Culture Collection) were cultivated in DMEM containing 10% fetal bovine serum (FBS). Primary human pulmonary arterial endothelial cells (PAECs) were grown in EGM-2 cell culture media (Lonza), and experiments were performed at passages 3 to 6. Primary human pulmonary arterial smooth muscle cells (PASMCs) were cultured in SmGM-2 cell culture media (Lonza), and experiments were performed at passages 3 to 9. Inhibitors of GLS1 (2, 3): BPTES (Bis-2-(5-phenylacetamido-1,3,4-thiadiazol-2-yl)ethyl sulphide), DON (6-Diazo-5-oxo-L-norleucine), and C968 (Glutaminase Inhibitor, Compound 968, 5-(3-Bromo-4-(dimethylamino)phenyl)-2,2-dimethyl-2,3,5,6-tetrahydrobenzo[a]phenanthridin-4(1H)-one) were purchased from Sigma-Aldrich and used at concentration of 10 μM, 5 μM and 10 μM respectively. Glutamate was purchased from Sigma Aldrich and used at concentration of 2 mM. Aspartate was purchased from Sigma Aldrich and used at concentration of 10 mM.
Metabolite extraction was performed essentially as described with minor modifications (35). Briefly, metabolites were extracted from cultured cells and CD31+ cells on dry ice using 80% aqueous methanol pre-cooled at −80° C. Metabolites were extracted from plasma pre-cleared by centrifugation at 20,000×g for 10 min at 4° C. Supernatants were extracted with four volumes of 100% methanol pre-cooled at −80° C. for four hours at −80° C. An internal standard, [^13C4]-2-oxoglutarate (Cambridge Isotope Laboratories) was added during metabolite extraction. Insoluble material from both cell and plasma extractions was removed by centrifugation at 20,000×g for 15 min at 4° C. The supernatant was analysed by targeted LC-MS/MS as previously described (36). Metabolites were separated using a ZIC-HILIC stationary phase (150 mm×2.1 mm×[…]; Merck). The MS parameters were optimized using a glutamine standard solution. Monitored mass transitions were 87>87 (pyruvate), 115>73+99 (succinate), 132>88 (aspartate), 145>101 (20G), […] (glutamine), 146>128 (glutamate), and 149>105 ([^13C4]-20G). Mass transitions and retention time windows were confirmed by the analysis of neat and matrix-spiked standards. Peak areas were quantified by Xcalibur Software (Thermo) and manually reviewed.
To determine whether GLS1 is critical for stiffness-induced and YAP/TAZ-dependent glutaminolysis, PAECs were cultivated in soft or stiff matrix, and exposed to known inhibitors of two isoforms of GLS1 (KGA and GAC), BPTES (Bis-2-(5-phenylacetamido-1,3,4-thiadiazol-2-yl)ethyl sulphide), DON (6-Diazo-5-oxo-L-norleucine), or CB-968 (glutaminase inhibitor, compound 968, C-968) (FIG. 3A-C) or siRNA (si-GLS; FIG. 3D-G). As quantified by LC-MS/MS, inhibition of GLS in PAECs blunted the stiffness-induced processes of glutamine consumption, glutamate production, and aspartate production (FIGS. 3A and E). […] Similar alterations of metabolic activity were observed when inhibiting GLS1 in PASMCs (data not shown).

Take `N#CCCN` [BAPN, β-aminoproprionitrile]: the “LOX activity in lungs” value in the test on Lox is given as “decreased”. Besides, in the test with GLS1 [1], the GLS expression entry was “decrease” and the “GLS1 expression in lungs” value is “decreased”.
As for `C=Cc1c(C)c2cc3nc(cc4[nH]c(cc5nc(cc1[nH]2)C(C)=C5CCC(=O)O)c(CCC(=O)OC)c4C)[C@@]1(C)C3=CC=C(C(=O)OC)[C@H]1C(=O)OC` [Verteporfin, 3-[(23S,24R)-14-ethenyl-5-(3-methoxy-3-oxopropyl)-22,23-bis(methoxycarbonyl)-4,10,15,24-tetramethyl-25,26,27,28-tetraazahexacyclo[16.6.1.1^3,6.1^8,11.1^13,16.0^19,24]octacosa-1,3,5,7,9,11(27),12,14,16,18(25),19,21-dodecaen-9-yl]propanoic acid], the “LOX activity in lungs” value with Lox was “decreased”. Besides, in the test on GLS1 [1], the GLS expression result is given as “decrease” and the “GLS1 expression in lungs” value is listed as “decreased”. The GLS expression entry with GLS1 [1] (listed as verteporfin) is recorded as “improved”.
Consider `CN(C)c1ccc(C2Nc3ccc4ccccc4c3C3=C2C(=O)CC(C)(C)C3)cc1Br` (stereo not drawn) [C968, 5-(3-Bromo-4-(dimethylamino)phenyl)-2,2-dimethyl-2,3,5,6-tetrahydrobenzo[a]phenanthridin-4(1H)-one], for which, in the test with GLS1 [2], the “alterations of metabolite expression in stiff matrix (stiffness-induced glutamine consumption, glutamate production, aspartate production)” value was “blunted” and the “lactate/pyruvate ratio (glycolysis)” value was “decreased”.
